Test results from ChEMBL document CHEMBL1150965, “Aculeoside B, a new bisdesmosidic spirostanol saponin from the underground parts of Ruscus aculeatus” (J Nat Prod, 1998).
≈ marks a conversion by molar mass, not a printed value.

System: HL-60
Assay: Cytostatic activity against human HL60 cells after 72 hrs by MTT assay
Format: functional, cell-based
Conditions: HL-60, 72 h

C=C1CO[C@@]2(O[C@H]3C[C@H]4[C@@H]5CC=C6C[C@@H](O)C[C@@H](O[C@@H]7OC[C@H](O)[C@H](O)[C@H]7O[C@@H]7O[C@@H](C)[C@H](OC(C)=O)[C@@H](OC(C)=O)[C@H]7OC(C)=O)[C@]6(C)[C@H]5CC[C@]4(C)[C@H]3[C@@H]2C)[C@@H](O)[C@H]1O[C@@H]1O[C@H](C)C(=O)[C@H](O)[C@H]1O [ACULEOSIDE A]
IC50: 0.48 µg/mL (≈ 0.476 µM)
